Data from patent US12077555B2, “STAT degraders and uses thereof” (Kymera Therapeutics, Inc., priority 2019, dated 2024).

Target: STAT3 (Homo sapiens, UniProt P40763)
Test: Quantitation of STAT3 degradation in A549 cells by Western blot
Type: cell-based
Parameters: expressed in transfected cells; host or cells: A549
Conditions: read-out: A549 DC50, 24 hours, tested up to 30 μM or 10 μM
Experimental: Degradation of total cellular STAT3 protein in A549 was quantitatively measured using SDS-PAGE and Western blot analysis. A549 cells (5×10^5 cells/well, 2 mL) were seeded into 6-well plates and were incubated in the incubator under 5% CO2 overnight to reach ˜80% confluency. The next day, the culture medium was changed with 1 ml fresh media. Then, 1 mL of media containing 2× compound solution was added into the well to make the final concentration of 30 μM, 10 μM, 3 μM, 1 μM, 0.3 μM and 0 μM (DMSO). The media was thoroughly mixed and incubated for 24 hours at 37° C. under 5% CO2. Then, the culture media was removed from the assay plates and the cells were washed with ice-cold PBS twice. To prepare cell lysates, 200 ul pre-chilled RIPA lysis buffer (Boston BioProducts BP-115D) with protease/phosphatase inhibitor (Roche 05892791001/Roche 04906837001) was added directly into the well to lyse the cells for 20 minutes on ice. The cell lysates were then transferred to centrifuge tubes. Insoluble part of lysates was removed by centrifuging the lysates at 13000 rpm for 20 minutes. The supernatant was then collected and mixed with 5× loading buffer (Beyotime Bio P0015) to make the final samples for SDS-PAGE analysis. The samples were heated at 100° C. for 10 minutes and cool to room temperature before centrifuging at 13000 rpm for 20 minutes. To analyze the samples by SDS-PAGE, 10 ul samples were loaded onto SDS-PAGE gel (Novex, WG1403BOX) and the SDS-PAGE gel was run for 20 minutes at 80 V, then at 120 V for 1.5 hours. The SDS-PAGE gel was then transferred to nitrocellulose membrane using the wet-transfer method at 250 mA for 1.5 hours. The membrane was then blocked with LI-COR blocking buffer (LI-COR, 927-50000) for 1 hour and was probed with primary antibody (mouse anti-STAT3 (124H6) (CST #91395) 1:2000 or mouse anti-beta-Actin (8H10D10) (CST #3700) 1:10000) at 4° C. overnight. The membrane was then washed three times with TBST buffer and probed with secondary antibody (anti-mouse IgG (LI-COR, 926-68070), 1:5000) for 1 hour at room temperature. The membrane was then scanned on a LI-COR Odyssey instrument and was quantified using Image Studio Version 5.2. Concentration at 50% degradation (DC50) was calculated by fitting dose dependent degradation data using a sigmoidal equation using GraphPad Prism Version 8.0.

Sequence of STAT3 (P40763 whole entry): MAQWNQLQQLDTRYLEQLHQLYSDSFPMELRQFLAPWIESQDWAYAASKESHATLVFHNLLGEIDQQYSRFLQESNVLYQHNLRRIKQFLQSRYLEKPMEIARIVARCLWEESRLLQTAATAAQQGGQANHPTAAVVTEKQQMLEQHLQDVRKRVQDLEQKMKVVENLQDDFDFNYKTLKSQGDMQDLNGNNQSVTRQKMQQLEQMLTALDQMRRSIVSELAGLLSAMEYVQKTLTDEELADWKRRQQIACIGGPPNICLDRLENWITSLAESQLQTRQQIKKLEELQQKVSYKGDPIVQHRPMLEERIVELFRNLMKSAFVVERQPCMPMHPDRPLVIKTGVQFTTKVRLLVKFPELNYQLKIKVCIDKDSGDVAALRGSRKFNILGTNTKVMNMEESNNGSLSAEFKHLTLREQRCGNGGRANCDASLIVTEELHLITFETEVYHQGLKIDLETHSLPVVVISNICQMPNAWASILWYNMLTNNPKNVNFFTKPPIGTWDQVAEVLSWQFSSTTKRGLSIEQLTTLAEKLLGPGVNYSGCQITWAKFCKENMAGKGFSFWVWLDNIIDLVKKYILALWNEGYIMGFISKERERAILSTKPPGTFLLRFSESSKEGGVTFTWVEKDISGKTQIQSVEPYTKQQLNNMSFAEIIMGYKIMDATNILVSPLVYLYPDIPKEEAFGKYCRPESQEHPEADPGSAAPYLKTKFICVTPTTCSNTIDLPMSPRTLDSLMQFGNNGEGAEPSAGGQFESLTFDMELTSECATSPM

| Structure (SMILES) | DC50 |
| --- | --- |
| C/C(=C\C(=O)N[C@H]1CCc2cccc3c2N(C1=O)[C@H](C(=O)N[C@@H](CCC(N)=O)[C@@H](C)OCc1ccc(CCCOCCCCCc2cccc4c2n(C)c(=O)n4C2CCC(=O)NC2=O)cc1)C3)c1ccc(C(F)(F)P(=O)(OCOC(=O)C(C)(C)C)OCOC(=O)C(C)(C)C)cc1 (some centres unmarked) [Compound I-29] | > 10 µM |
| C/C(=C\C(=O)N[C@H]1CCc2cccc3c2N(C1=O)[C@H](C(=O)N[C@@H](CCC(N)=O)[C@@H](C)OCc1ccc(CCOCCOCCOCC(=O)N[C@H](C(=O)N2C[C@H](O)C[C@H]2C(=O)NCc2ccc(-c4scnc4C)cc2)C(C)(C)C)cc1)C3)c1ccc(C(F)(F)P(=O)(OCOC(=O)C(C)(C)C)OCOC(=O)C(C)(C)C)cc1 [Compound I-30] | > 10 µM |
| C/C(=C\C(=O)N[C@H]1CCc2cccc3c2N(C1=O)[C@H](C(=O)N[C@@H](CCC(N)=O)[C@@H](C)OCc1ccc(CCOCCOCC(=O)N[C@H](C(=O)N2C[C@H](O)C[C@H]2C(=O)NCc2ccc(-c4scnc4C)cc2)C(C)(C)C)cc1)C3)c1ccc(C(F)(F)P(=O)(OCOC(=O)C(C)(C)C)OCOC(=O)C(C)(C)C)cc1 [Compound I-31] | > 30 µM |
| C/C(=C\C(=O)N[C@H]1CCc2cccc3c2N(C1=O)[C@H](C(=O)NC(CCC(N)=O)[C@@H](C)OCc1ccc(CCCOCCOCCOCCOCC(=O)N[C@H](C(=O)N2C[C@H](O)C[C@H]2C(=O)NCc2ccc(-c4scnc4C)cc2)C(C)(C)C)cc1)C3)c1ccc(C(F)(F)P(=O)(OCOC(=O)C(C)(C)C)OCOC(=O)C(C)(C)C)cc1 (some centres unmarked) [Compound I-32] | > 10 µM |
| C/C(=C\C(=O)N[C@H]1CCc2cccc3c2N(C1=O)[C@H](C(=O)NC(CCC(N)=O)[C@@H](C)OCc1ccc(CCCOCCOCCOCC(=O)N[C@H](C(=O)N2C[C@H](O)C[C@H]2C(=O)NCc2ccc(-c4scnc4C)cc2)C(C)(C)C)cc1)C3)c1ccc(C(F)(F)P(=O)(OCOC(=O)C(C)(C)C)OCOC(=O)C(C)(C)C)cc1 (some centres unmarked) [Compound I-33] | > 10 µM |
| C/C(=C\C(=O)N[C@H]1CCc2cccc3c2N(C1=O)[C@H](C(=O)NC(CCC(N)=O)[C@@H](C)OCc1ccc(CCCCOCC(=O)N[C@H](C(=O)N2C[C@H](O)C[C@H]2C(=O)NCc2ccc(-c4scnc4C)cc2)C(C)(C)C)cc1)C3)c1ccc(C(F)(F)P(=O)(OCOC(=O)C(C)(C)C)OCOC(=O)C(C)(C)C)cc1 (some centres unmarked) [Compound I-34] | < 30 µM |
| C/C(=C\C(=O)N[C@H]1CCc2cccc3c2N(C1=O)[C@H](C(=O)NC(CCC(N)=O)[C@@H](C)OCc1ccc(CCCOCC(=O)N[C@H](C(=O)N2C[C@H](O)CC2C(=O)NCc2ccc(-c4scnc4C)cc2)C(C)(C)C)cc1)C3)c1ccc(C(F)(F)P(=O)(OCOC(=O)C(C)(C)C)OCOC(=O)C(C)(C)C)cc1 (some centres unmarked) [Compound I-35] | < 30 µM |
| C/C(=C\C(=O)N[C@H]1CCc2cccc3c2N(C1=O)[C@H](C(=O)NC(CCC(N)=O)[C@@H](C)OCc1ccc(CCCOCCCCCc2ccc4c(c2)n(C)c(=O)n4C2CCC(=O)NC2=O)cc1)C3)c1ccc(C(F)(F)P(=O)(OCOC(=O)C(C)(C)C)OCOC(=O)C(C)(C)C)cc1 (stereo partly drawn) [Compound I-36, [([4-[(1E)-1-[[(2S,11S)-2-[[(3S,4R)-1-carbamoyl-4-([4-[3-([5-[1-(2,6-dioxopiperidin-3-yl)-3-methyl-2-oxo-1,3-benzodiazol-5-yl]pentyl]oxy)propyl]phenyl]methoxy)pentan-3-yl]carbamoyl]-12-oxo-1-azatricyclo[6.4.1.0^[4,13]]trideca-4(13),5,7-trien-11-yl]carbamoyl]prop-1-en-2-yl]phenyl]difluoromethyl([(2,2-dimethylpropanoyl)oxy]methoxy)phosphoryl)oxy]methyl 2,2-dimethylpropanoate] | > 10 µM |
| C/C(=C\C(=O)N[C@H]1CCc2cccc3c2N(C1=O)[C@H](C(=O)NC(CCC(N)=O)[C@@H](C)OCc1ccc(CCCOCCOCC(=O)N[C@H](C(=O)N2C[C@H](O)C[C@H]2C(=O)NCc2ccc(-c4scnc4C)cc2)C(C)(C)C)cc1)C3)c1ccc(C(F)(F)P(=O)(OCOC(=O)C(C)(C)C)OCOC(=O)C(C)(C)C)cc1 (some centres unmarked) [Compound I-37] | > 10 µM |
| C/C(=C\C(=O)N[C@H]1CCc2cccc3c2N(C1=O)[C@H](C(=O)N[C@@H](CCC(N)=O)[C@@H](C)OCc1ccc(CCCCCOCCCc2cccc4c2n(C)c(=O)n4C2CCC(=O)NC2=O)cc1)C3)c1ccc(C(F)(F)P(=O)(OCOC(=O)C(C)(C)C)OCOC(=O)C(C)(C)C)cc1 (stereo partly drawn) [Compound I-38, [([4-[(1E)-1-[[(2S,11S)-2-[[(3S,4R)-1-carbamoyl-4-[[4-(5-[3-[1-(2,6-dioxopiperidin-3-yl)-3-methyl-2-oxo-1,3-benzodiazol-4-yl]propoxy]pentyl)phenyl]methoxy]pentan-3-yl]carbamoyl]-12-oxo-1-azatricyclo[6.4.1.0^[4,13]]trideca-4(13),5,7-trien-11-yl]carbamoyl]prop-1-en-2-yl]phenyl]difluoromethyl([(2,2-dimethylpropanoyl)oxy]methoxy)phosphoryl)oxy]methyl 2,2-dimethylpropanoate] | > 10 µM |
| C/C(=C\C(=O)N[C@H]1CCc2cccc3c2N(C1=O)[C@H](C(=O)NC(CCC(N)=O)[C@@H](C)OCc1ccc(CCCOCCCCCOCCCc2cccc4c2n(C)c(=O)n4C2CCC(=O)NC2=O)cc1)C3)c1ccc(C(F)(F)P(=O)(OCOC(=O)C(C)(C)C)OCOC(=O)C(C)(C)C)cc1 (some centres unmarked) [Compound I-43] | > 30 µM |
| C/C(=C\C(=O)N[C@H]1CCc2cccc3c2N(C1=O)[C@H](C(=O)NC(CCC(N)=O)[C@@H](C)OCc1ccc(CCCOCCCCCCOCCCc2cccc4c2n(C)c(=O)n4C2CCC(=O)NC2=O)cc1)C3)c1ccc(C(F)(F)P(=O)(OCOC(=O)C(C)(C)C)OCOC(=O)C(C)(C)C)cc1 (some centres unmarked) [Compound I-44] | > 30 µM |
| C/C(=C\C(=O)N[C@H]1CCc2cccc3c2N(C1=O)[C@H](C(=O)N[C@@H](CCC(N)=O)[C@@H](C)OCc1ccc(CCCOCCOCCCc2ccc4c(c2)n(C)c(=O)n4C2CCC(=O)NC2=O)cc1)C3)c1ccc(C(F)(F)P(=O)(OCOC(=O)C(C)(C)C)OCOC(=O)C(C)(C)C)cc1 (some centres unmarked) [Compound I-54] | > 30 µM |
| C/C(=C\C(=O)N[C@H]1CCc2cccc3c2N(C1=O)[C@H](C(=O)N[C@@H](CCC(N)=O)[C@@H](C)OCc1ccc(CCCOCCOCCOCCCc2ccc4c(c2)n(C)c(=O)n4C2CCC(=O)NC2=O)cc1)C3)c1ccc(C(F)(F)P(=O)(OCOC(=O)C(C)(C)C)OCOC(=O)C(C)(C)C)cc1 (some centres unmarked) [Compound I-55] | > 30 µM |
| CCCC[C@H](NC(=O)/C=C(\C)c1ccc(C(F)(F)P(=O)(OCOC(=O)C(C)(C)C)OCOC(=O)C(C)(C)C)cc1)C(=O)N1C[C@H]2C[C@H]2[C@H]1C(=O)N[C@@H](CCC(N)=O)[C@@H](C)OCc1ccc(CCCNC(=O)COCCOCCCc2ccc3c(c2)n(C)c(=O)n3C2CCC(=O)NC2=O)cc1 (stereo partly drawn) [Compound I-58, [([4-[(1E)-1-[[(2S)-1-[(1R,2S,5S)-2-[[(3S,4R)-1-carbamoyl-4-[(4-[3-[2-(2-[3-[1-(2,6-dioxopiperidin-3-yl)-3-methyl-2-oxo-1,3-benzodiazol-5-yl]propoxy]ethoxy)acetamido]propyl]phenyl)methoxy]pentan-3-yl]carbamoyl]-3-azabicyclo[3.1.0]hexan-3-yl]-1-oxohexan-2-yl]carbamoyl]prop-1-en-2-yl]phenyl]difluoromethyl([(2,2-dimethylpropanoyl)oxy]methoxy)phosphoryl)oxy]methyl 2,2-dimethylpropanoate] | > 30 µM |
| CCCC[C@H](NC(=O)/C=C(\C)c1ccc(C(F)(F)P(=O)(OCOC(=O)C(C)(C)C)OCOC(=O)C(C)(C)C)cc1)C(=O)N1C[C@H]2C[C@H]2[C@H]1C(=O)N[C@@H](CCC(N)=O)[C@@H](C)OCc1ccc(CCCNC(=O)COCCOCCOCCCc2ccc3c(c2)n(C)c(=O)n3C2CCC(=O)NC2=O)cc1 (stereo partly drawn) [Compound I-59, [([4-[(1E)-1-[[(2S)-1-[(1R,2S,5S)-2-[[(3S,4R)-1-carbamoyl-4-[[4-(3-[2-[2-(2-[3-[1-(2,6-dioxopiperidin-3-yl)-3-methyl-2-oxo-1,3-benzodiazol-5-yl]propoxy]ethoxy)ethoxy]acetamido]propyl)phenyl]methoxy]pentan-3-yl]carbamoyl]-3-azabicyclo[3.1.0]hexan-3-yl]-1-oxohexan-2-yl]carbamoyl]prop-1-en-2-yl]phenyl]difluoromethyl([(2,2-dimethylpropanoyl)oxy]methoxy)phosphoryl)oxy]methyl 2,2-dimethylpropanoate] | > 30 µM |
| C/C(=C\C(=O)N[C@H]1CCc2cccc3c2N(C1=O)[C@H](C(=O)N[C@@H](CCC(N)=O)[C@@H](C)OCc1ccc(CCCOCCOCCOCCOCCCc2ccc4c(c2)n(C)c(=O)n4C2CCC(=O)NC2=O)cc1)C3)c1ccc(C(F)(F)P(=O)(OCOC(=O)C(C)(C)C)OCOC(=O)C(C)(C)C)cc1 (some centres unmarked) [Compound I-60] | > 30 µM |
